Reference: US20260274804A1, “PHENOLIC COMPOUNDS BLOCKING Nav 1.7 AND/OR Nav 1.8, PROCESSES FOR THE PREPARATION THEREOF, COMPOSITIONS, USES, METHODS OF TREATMENT USING SAME AND KITS” (Eurofarma Laboratórios S.A., priority 2023, published 2026)

How the values were obtained:
[1] = biological target: T1, human sodium channels Nav 1.8 (Homo sapiens, UniProt Q9Y5Y9); experiment: Automated whole-cell voltage-clamp (ScreenPatch 384P) on CHO cells stably expressing Nav 1.8; type: cell-based; details: inactivation step -40 mV 8 s, test pulse 10 mV, room temperature, exposure at least five minutes, read-out: Nav1.8 IC50
T1 construct: expressed in transfected cells
T1 sequence (Q9Y5Y9 whole entry): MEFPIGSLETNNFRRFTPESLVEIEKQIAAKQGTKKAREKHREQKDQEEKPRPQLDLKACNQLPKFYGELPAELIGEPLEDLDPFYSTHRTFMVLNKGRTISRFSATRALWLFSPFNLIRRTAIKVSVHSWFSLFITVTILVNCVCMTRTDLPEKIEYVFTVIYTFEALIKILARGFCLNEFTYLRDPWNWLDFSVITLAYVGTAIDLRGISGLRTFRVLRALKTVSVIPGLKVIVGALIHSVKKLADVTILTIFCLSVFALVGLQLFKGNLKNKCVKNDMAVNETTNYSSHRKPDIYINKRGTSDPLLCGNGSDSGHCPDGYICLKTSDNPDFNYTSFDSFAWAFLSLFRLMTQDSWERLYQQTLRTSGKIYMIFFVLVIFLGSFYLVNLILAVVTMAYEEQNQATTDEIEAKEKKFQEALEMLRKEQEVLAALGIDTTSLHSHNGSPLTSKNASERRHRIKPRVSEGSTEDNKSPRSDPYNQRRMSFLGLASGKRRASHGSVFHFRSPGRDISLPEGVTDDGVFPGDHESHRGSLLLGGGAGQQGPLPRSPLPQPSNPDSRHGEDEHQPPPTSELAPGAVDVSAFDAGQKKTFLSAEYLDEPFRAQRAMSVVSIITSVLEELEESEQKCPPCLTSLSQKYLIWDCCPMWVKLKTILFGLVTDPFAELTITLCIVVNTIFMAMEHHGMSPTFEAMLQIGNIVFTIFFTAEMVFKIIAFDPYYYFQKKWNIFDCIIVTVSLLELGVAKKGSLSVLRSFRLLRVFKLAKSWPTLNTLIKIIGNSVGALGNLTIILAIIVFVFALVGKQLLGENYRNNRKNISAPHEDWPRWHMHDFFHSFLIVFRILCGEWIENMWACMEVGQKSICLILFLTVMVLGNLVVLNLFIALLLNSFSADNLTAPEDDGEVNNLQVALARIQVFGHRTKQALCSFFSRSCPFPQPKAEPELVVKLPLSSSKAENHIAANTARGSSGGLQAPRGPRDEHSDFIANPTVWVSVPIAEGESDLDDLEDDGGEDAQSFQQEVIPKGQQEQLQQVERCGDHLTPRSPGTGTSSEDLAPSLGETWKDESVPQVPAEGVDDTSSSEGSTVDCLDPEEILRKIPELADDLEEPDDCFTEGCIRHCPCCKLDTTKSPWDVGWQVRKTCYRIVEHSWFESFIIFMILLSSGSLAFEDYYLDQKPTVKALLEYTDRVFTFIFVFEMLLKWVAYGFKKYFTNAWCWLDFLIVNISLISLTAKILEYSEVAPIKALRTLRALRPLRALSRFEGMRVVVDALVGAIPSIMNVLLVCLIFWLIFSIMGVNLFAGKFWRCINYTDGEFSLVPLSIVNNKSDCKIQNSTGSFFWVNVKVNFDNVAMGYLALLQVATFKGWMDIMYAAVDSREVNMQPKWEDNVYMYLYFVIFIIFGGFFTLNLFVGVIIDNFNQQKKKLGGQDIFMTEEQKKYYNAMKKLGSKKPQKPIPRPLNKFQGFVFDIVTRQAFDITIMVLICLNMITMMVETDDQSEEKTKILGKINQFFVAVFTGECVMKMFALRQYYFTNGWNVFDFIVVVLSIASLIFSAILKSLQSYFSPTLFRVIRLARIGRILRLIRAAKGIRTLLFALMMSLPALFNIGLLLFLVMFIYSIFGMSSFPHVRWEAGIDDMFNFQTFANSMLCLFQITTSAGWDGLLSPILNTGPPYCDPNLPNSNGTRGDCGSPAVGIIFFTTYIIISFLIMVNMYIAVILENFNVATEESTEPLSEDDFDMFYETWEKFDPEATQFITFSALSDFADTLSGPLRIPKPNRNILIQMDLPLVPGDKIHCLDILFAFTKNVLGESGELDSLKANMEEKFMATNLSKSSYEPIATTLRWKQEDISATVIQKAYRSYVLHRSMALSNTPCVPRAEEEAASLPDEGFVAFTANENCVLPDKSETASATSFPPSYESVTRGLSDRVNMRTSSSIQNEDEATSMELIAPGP
Protocol: (§1) Biological assays were performed on Chinese hamster ovary (CHO) cells that express human sodium channels Nav 1.8 or Nav 1.7 in a stable manner.
(§2) The experimental protocol voltage-clamp using the whole cell configuration was established on the automated ScreenPatch® 384P platform (SP384PE, Nanion Technologies, Livingston, NJ) and the results were recorded with a Nanion 384-well Patch Clamp chip (NPC) (Nanion Technologies, Livingston, NJ).
(§3) Formula I compounds were diluted in eight concentrations in the extracellular solution composed of physiological saline solution, buffered with HEPES (mM): NaCl, 137; KCl, 4; CaCl2, 3.8; MgCl2, 1; HEPES, 10; Glucose, 10; pH 7.4. The […], 50; CsF, 90; MgCl2, 5; EGTA, 5; HEPES, 10; pH 7.2. The duration of exposure of each compound with cells expressing Nav 1.7 or Nav 1.8 was at least five minutes, and the assays were performed at room temperature.
(§4) The measurements of the sodium currents of Nav 1.8 and Nav 1.7 were obtained using the voltage protocol described below.
(§5) A holding voltage of −100 mV was established followed by an inactivation voltage step at −40 mV for 8 seconds, followed by a step of −100 mV for 20 ms, followed by a 20 ms step for 10 mV for Nav 1.8 or 0 mV for Nav 1.7 (TP1A) before returning to the holding voltage of −100 mV.
(§6) The protocol was repeated at a frequency of 0.05 Hz and the amplitude of the current was quantified throughout the recording of the TP1A phase. The variation in the peak current amplitude was evaluated according to the Formula described below, after exposing the cells expressing the channels to each concentration of the different compounds:
(§7) [formula] • wherein […] and ITP1A,molecule represent the peaks of sodium current input into TP1A before exposure to the compound and in the presence of the compound, respectively.
(§8) The decrease in the peak current amplitude, after the exposure of the cells to the compounds, was used to calculate the percentage of relative blockage of the channels in relation to the positive control according to the Formula below:
(§9) [formula] • where % V and % CP represent the means of the values of current inhibition with a vehicle (DMSO) and positive controls, respectively. The sodium currents of the positive control were considered as 100%:
(§10) [formula] • wherein [Test] represents the concentration of the molecule evaluated, IC50 is the concentration of the compound that generates half of the maximum inhibition, N is Hill's coefficient, and % Blockage' is the percentage of sodium channel current (Nav 1.8 and Nav 1.7) inhibited at each concentration of the molecule evaluated. Data were obtained by nonlinear regression (nonlinear least squares) with XLfit for Excel (Microsoft, Redmond, WA).
(§11) The compounds were tested in at least one assay to obtain the value of CI50. For compounds that were tested in two or more assays, the results are described as the means of the CI50 values.

[2] = biological target: T2, human sodium channels Nav 1.7 (Homo sapiens, UniProt Q15858); experiment: Automated whole-cell voltage-clamp (ScreenPatch 384P) on CHO cells stably expressing Nav 1.7; type: cell-based; details: inactivation step -40 mV 8 s, test pulse 0 mV, room temperature, exposure at least five minutes, read-out: Nav1.7 IC50
T2 construct: expressed in transfected cells
T2 sequence (Q15858 whole entry): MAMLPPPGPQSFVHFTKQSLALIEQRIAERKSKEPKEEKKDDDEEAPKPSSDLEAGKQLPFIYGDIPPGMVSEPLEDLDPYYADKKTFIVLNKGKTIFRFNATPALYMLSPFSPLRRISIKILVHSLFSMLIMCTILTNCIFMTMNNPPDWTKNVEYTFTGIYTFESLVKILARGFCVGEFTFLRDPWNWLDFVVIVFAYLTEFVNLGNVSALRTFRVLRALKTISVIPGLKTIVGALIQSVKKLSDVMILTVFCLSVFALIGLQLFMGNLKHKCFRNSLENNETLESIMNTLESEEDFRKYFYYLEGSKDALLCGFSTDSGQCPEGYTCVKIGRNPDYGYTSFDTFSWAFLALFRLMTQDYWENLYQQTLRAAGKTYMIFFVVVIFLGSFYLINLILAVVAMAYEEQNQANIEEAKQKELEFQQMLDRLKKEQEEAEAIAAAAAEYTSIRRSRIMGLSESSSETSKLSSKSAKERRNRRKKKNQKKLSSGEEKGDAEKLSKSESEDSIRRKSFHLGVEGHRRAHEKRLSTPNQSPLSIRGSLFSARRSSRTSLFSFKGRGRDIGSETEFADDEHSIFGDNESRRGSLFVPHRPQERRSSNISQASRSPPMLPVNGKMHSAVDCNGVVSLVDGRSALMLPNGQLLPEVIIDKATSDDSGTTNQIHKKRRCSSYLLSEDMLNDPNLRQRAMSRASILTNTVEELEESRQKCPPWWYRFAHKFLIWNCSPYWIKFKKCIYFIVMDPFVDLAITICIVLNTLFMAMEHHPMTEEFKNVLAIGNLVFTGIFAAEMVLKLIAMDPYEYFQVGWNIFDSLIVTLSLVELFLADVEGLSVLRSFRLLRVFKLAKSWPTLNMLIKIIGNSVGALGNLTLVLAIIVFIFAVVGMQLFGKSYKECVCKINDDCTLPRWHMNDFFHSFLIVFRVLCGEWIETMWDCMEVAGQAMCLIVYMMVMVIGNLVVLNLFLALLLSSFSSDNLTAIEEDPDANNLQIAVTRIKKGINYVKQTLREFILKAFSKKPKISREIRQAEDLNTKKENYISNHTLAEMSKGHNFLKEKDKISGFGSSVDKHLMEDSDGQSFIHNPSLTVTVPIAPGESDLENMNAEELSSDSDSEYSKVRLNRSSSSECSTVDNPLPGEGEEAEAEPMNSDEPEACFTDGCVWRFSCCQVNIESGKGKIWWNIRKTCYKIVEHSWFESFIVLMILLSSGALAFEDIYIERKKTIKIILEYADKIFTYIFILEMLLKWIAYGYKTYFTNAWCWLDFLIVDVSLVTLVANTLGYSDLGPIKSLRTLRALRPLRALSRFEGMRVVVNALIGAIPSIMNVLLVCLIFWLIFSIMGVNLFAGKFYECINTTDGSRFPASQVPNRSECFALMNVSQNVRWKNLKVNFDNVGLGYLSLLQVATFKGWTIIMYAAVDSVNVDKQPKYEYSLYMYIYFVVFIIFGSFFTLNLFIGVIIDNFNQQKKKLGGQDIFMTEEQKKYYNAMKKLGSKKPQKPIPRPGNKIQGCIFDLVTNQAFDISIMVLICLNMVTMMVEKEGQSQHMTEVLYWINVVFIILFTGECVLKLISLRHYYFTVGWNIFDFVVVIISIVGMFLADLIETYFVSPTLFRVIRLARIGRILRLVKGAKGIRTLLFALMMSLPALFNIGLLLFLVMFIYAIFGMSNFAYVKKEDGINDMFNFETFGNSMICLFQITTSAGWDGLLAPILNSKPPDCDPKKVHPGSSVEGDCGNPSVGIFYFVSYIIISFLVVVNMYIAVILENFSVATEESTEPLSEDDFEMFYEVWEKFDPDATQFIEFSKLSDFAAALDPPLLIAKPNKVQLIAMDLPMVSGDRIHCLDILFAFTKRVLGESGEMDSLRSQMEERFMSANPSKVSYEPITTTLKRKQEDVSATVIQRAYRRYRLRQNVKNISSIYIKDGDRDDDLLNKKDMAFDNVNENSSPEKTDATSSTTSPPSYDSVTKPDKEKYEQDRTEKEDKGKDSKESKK
Protocol: as §1, §2, §3, §4, §5, §6, §7, §8, §9, §10, §11

| Compound | IC50 [1] | IC50 [2] |
| --- | --- | --- |
| COc1ccc(-c2nc(C(=O)N/N=C/c3cc(C)cc(C)c3)cnc2O)cc1 [Compound 13, (E)-N′-(3,5-dimethylbenzylidene)-5-hydroxy-6-(4-methoxyphenyl)pyrazine-2-carbohydrazide] | > 1000 nM | > 1000 nM |
| COc1ccc(-c2cnc(O)c(C(=O)N/N=C/c3cc(OC)cc(OC)c3)n2)cc1 [Compound 14, (E)-N′-(3,5-dimethoxybenzylidene)-3-hydroxy-6-(4-methoxyphenyl)pyrazine-2-carbohydrazide] | > 1000 nM | > 1000 nM |
| COc1ccc(-c2cnc(O)c(C(=O)N/N=C/c3cc(C)cc(C)c3)n2)cc1 [Compound 15, (E)-N′-(3,5-dimethylbenzylidene)-3-hydroxy-6-(4-methoxyphenyl)pyrazine-2-carbohydrazide] | > 1000 nM | > 1000 nM |
| CCOc1ccc(-c2nc(C(=O)N/N=C/c3cc(OC)cnc3F)cnc2O)cc1 [Compound 16, (E)-6-(4-ethoxyphenyl)-N′-((2-fluoro-5-methoxypyridine-3-yl)methylene)-5-hydroxypyrazine-2-carbohydrazide] | > 1000 nM | > 1000 nM |
| CCOc1ccc(-c2nc(C(=O)N/N=C/c3cccc(OC)c3)cnc2O)c(F)c1 [Compound 18, (E)-6-(4-ethoxy-2-fluorophenyl)-5-hydroxy-N′-(3-methoxybenzylidene)pyrazine-2-carbohydrazide] | > 1000 nM | > 1000 nM |
| CCOc1ccc(-c2cnc(O)c(C(=O)N/N=C/c3cccc(OC)c3)n2)c(F)c1 [Compound 19, (E)-6-(4-ethoxy-2-fluorophenyl)-3-hydroxy-N′-(3-methoxybenzylidene)pyrazine-2-carbohydrazide] | > 1000 nM | > 1000 nM |
| COc1ccc(-c2cncc(C(=O)N/N=C/c3cc(O)cc(O)c3)n2)cc1 [Compound 20, (E)-N′-(3,5-dihydroxybenzylidene)-6-(4-methoxyphenyl)pyrazine-2-carbohydrazide] | > 1000 nM | > 1000 nM |
| COc1ccc(-c2cncc(C(=O)N/N=C/c3cc(O)cc(OC)c3)n2)cc1 [Compound 21, (E)-N′-(3-hydroxy-5-methoxybenzylidene)-6-(4-methoxyphenyl)pyrazine-2-carbohydrazide] | > 1000 nM | > 1000 nM |
| COc1ccc(-c2cncc(C(=O)N/N=C/c3ccc(O)cc3)n2)cc1 [Compound 22, (E)-N′-(4-hydroxybenzylidene)-6-(4-methoxyphenyl)pyrazine-2-carbohydrazide] | > 1000 nM | > 1000 nM |
| COc1ccc(-c2cncc(C(=O)N/N=C/c3cccc(O)c3)n2)cc1 [Compound 23, (E)-N′-(3-hydroxybenzylidene)-6-(4-methoxyphenyl)pyrazine-2-carbohydrazide] | > 1000 nM | > 1000 nM |
| COc1ccc(-c2cncc(C(=O)N/N=C/c3ccccc3O)n2)cc1 [Compound 24, (E)-N′-(2-hydroxybenzylidene)-6-(4-methoxyphenyl)pyrazine-2-carbohydrazide] | > 1000 nM | > 1000 nM |
| CCOc1ccc(-c2cncc(C(=O)N/N=C/c3cncc(O)c3)n2)cc1 [Compound 29, (E)-6-(4-ethoxyphenyl)-N′-((5-hydroxypyridine-3-yl)methylene)pyrazine-2-carbohydrazide] | > 1000 nM | > 1000 nM |

Next, values leading:

| IC50 [1] | IC50 [2] | Compound |
| --- | --- | --- |
| > 1000 nM | > 1000 nM | COc1cc(/C=N/NC(=O)c2cncc(-c3ccc(O)cc3)n2)cc(OC)c1 [Compound 1, (E)-N′-(3,5-dimethoxybenzylidene)-6-(4-hydroxyphenyl)pyrazine-2-carbohydrazide] |
| > 1000 nM | > 1000 nM | Cc1cc(C)cc(/C=N/NC(=O)c2cncc(-c3ccc(O)cc3)n2)c1 [Compound 2, (E)-N′-(3,5-dimethylbenzylidene)-6-(4-hydroxyphenyl)pyrazine-2-carbohydrazide] |
| > 1000 nM | > 1000 nM | COc1ccc(F)c(/C=N/NC(=O)c2cncc(-c3ccc(O)cc3)n2)c1 [Compound 3, (E)-N′-(2-fluoro-5-methoxybenzylidene)-6-(4-hydroxyphenyl)pyrazine-2-carbohydrazide] |
| > 1000 nM | > 1000 nM | O=C(N/N=C/c1cncc(O)c1)c1cncc(-c2ccc(O)cc2)n1 [Compound 4, (E)-6-(4-hydroxyphenyl)-N′-((5-hydroxypyridine-3-yl)methylene)pyrazine-2-carbohydrazide] |
| < 500 nM | > 1000 nM | COc1cc(/C=N/NC(=O)c2cncc(-c3ccc(OC)cc3O)n2)cc(OC)c1 [Compound 5, (E)-N′-(3,5-dimethoxybenzylidene)-6-(2-hydroxy-4-methoxyphenyl)pyrazine-2-carbohydrazide] |
| > 1000 nM | > 1000 nM | COc1cc(/C=N/NC(=O)c2cncc(-c3ccc(OC)c(O)c3)n2)cc(OC)c1 [Compound 6, (E)-N′-(3,5-dimethoxybenzylidene)-6-(3-hydroxy-4-methoxyphenyl)pyrazine-2-carbohydrazide] |
| < 500 nM | > 1000 nM | COc1ccc(-c2cncc(C(=O)N/N=C/c3cc(C)cc(C)c3)n2)c(O)c1 [Compound 7, (E)-N′-(3,5-dimethylbenzylidene)-6-(2-hydroxy-4-methoxyphenyl)pyrazine-2-carbohydrazide] |
| 500 to 1000 nM | > 1000 nM | CCOc1ccc(-c2cncc(C(=O)N/N=C/c3cc(OC)ccc3F)n2)c(O)c1 [Compound 8, (E)-6-(4-ethoxy-2-hydroxyphenyl)-N′-(2-fluoro-5-methoxybenzylidene)pyrazine-2-carbohydrazide] |
| < 500 nM | > 1000 nM | CCOc1ccc(-c2cncc(C(=O)N/N=C/c3cc(OC)cnc3F)n2)c(O)c1 [Compound 9, (E)-6-(4-ethoxy-2-hydroxyphenyl)-N′-((2-fluoro-5-methoxypyridine-3-yl)methylene)pyrazine-2-carbohydrazide] |
| > 1000 nM | > 1000 nM | COc1ccc(-c2nc(C(=O)N/N=C/c3cc(OC)cc(OC)c3)cnc2O)cc1 [Compound 12, (E)-N′-(3,5-dimethoxybenzylidene)-5-hydroxy-6-(4-methoxyphenyl)pyrazine-2-carbohydrazide] |
| 500 to 1000 nM | > 1000 nM | COc1ccc(-c2cncc(C(=O)N/N=C/c3cc(C)cc(O)c3)n2)cc1 [Compound 25, (E)-N′-(3-hydroxy-5-methylbenzylidene)-6-(4-methoxyphenyl)pyrazine-2-carbohydrazide] |
| < 500 nM | > 1000 nM | CCOc1ccc(-c2cncc(C(=O)N/N=C/c3cc(C)cc(O)c3)n2)cc1 [Compound 26, (E)-6-(4-ethoxyphenyl)-N′-(3-hydroxy-5-methylbenzylidene)pyrazine-2-carbohydrazide] |
| 500 to 1000 nM | > 1000 nM | CCOc1ccc(-c2cncc(C(=O)N/N=C/c3cc(O)ccc3F)n2)cc1 [Compound 27, (E)-6-(4-ethoxyphenyl)-N′-(2-fluoro-5-hydroxybenzylidene)pyrazine-2-carbohydrazide] |
| < 500 nM | > 1000 nM | CCOc1ccc(-c2cncc(C(=O)N/N=C/c3cc(OC)ccc3O)n2)cc1 [Compound 28, (E)-6-(4-ethoxyphenyl)-N′-(2-hydroxy-5-methoxybenzylidene)pyrazine-2-carbohydrazide] |
